Measured values reported in patent publication US8486931B2, “Substituted oxindole compounds” (Abbott GmbH & Co. KG, priority 2007, dated 2013).

What follows are compounds tested against T1, human vasopressin V1b receptor (Homo sapiens, UniProt P47901) (assay: Vasopressin V1b receptor binding assay). Conditions: membranes from CHO-K1 cells with stably expressed human V1b receptors, 1.5 nM 3H-AVP displacement; with more than one stereogenic center: the diastereomer with stronger affinity.
T1 construct: expressed in transfected cells; host or cells: CHO-K1 (cell line hV1b-3H2_CHO), membrane preparation
T1 sequence (P47901 1-424): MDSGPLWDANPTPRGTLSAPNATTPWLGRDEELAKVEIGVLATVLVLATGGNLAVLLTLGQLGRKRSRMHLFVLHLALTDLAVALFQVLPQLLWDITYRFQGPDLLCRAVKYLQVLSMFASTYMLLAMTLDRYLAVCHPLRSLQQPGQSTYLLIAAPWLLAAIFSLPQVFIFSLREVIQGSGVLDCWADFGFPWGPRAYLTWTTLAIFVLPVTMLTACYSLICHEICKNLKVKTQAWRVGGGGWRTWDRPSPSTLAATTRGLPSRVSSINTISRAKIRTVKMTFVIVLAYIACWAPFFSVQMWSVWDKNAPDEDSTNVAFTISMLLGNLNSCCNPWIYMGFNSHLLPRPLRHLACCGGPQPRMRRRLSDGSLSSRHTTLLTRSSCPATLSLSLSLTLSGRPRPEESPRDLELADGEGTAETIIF
Protocol: Such compounds can be investigated in suitable assays which establish the affinity to a receptor, with the affinity constant Ki represening a measure of the potency of the compounds and a smaller value representing a larger potency. The compounds of the invention were tested in the following receptor binding assay for their affinity for the V1 b receptor.
Vasopressin V1 b Receptor Binding Assay:
The test substances were dissolved in a concentration of 10^−2 M in DMSO (dimethyl sulfoxide) and further diluted to 5×10^−4 M to 5×10^−9 M in DMSO. This series of DMSO predilutions was diluted 1:10 with assay buffer. The substance concentration was again diluted 1:5 in the assay mixture (2% DMSO in the mixture).
The membrane pellet was again homogenized and centrifuged as described and then taken up in 50 mM Tris-HCl, pH 7.4, homogenized and stored in aliquots frozen in liquid nitrogen at −190° C.
The incubation buffer was: 50 mM Tris, 10 mM MgCl2, 0.1% BSA, pH 7.4.
The nonspecific binding was determined with 1 μM AVP (Bachem #H1780). All determinations were carried out as triplicate determinations. After incubation (60 minutes at room temperature), the free radioligand was removed by vacuum filtration (Skatron cell harvester 7000) through Whatman GF/B glass fiber filter mats, and the filters were transferred into scintillation vials. The liquid scintillation measurement took place in a Tricarb model 2000 or 2200CA instrument (Packard). Conversion of the measured cpm into dpm was carried out with the aid of a standard quench series.
The binding parameters were calculated by nonlinear regression in SAS.
The above assay was used to measure the affinities of the compounds of the invention for the human vasopressin V1 b receptor and to determine with affinity constants (Ki).

| SMILES | Ki [nM] |
| --- | --- |
| CCOc1nc(Cl)ccc1C1(N2CCN(c3ccncc3)CC2)C(=O)N(S(=O)(=O)c2cccc3c(C)ccnc23)c2ccc(C#N)cc21 (racemic) [Example 30, (±)-5-Cyano-3-(6-chloro-2-ethoxypyridin-3-yl)-1-(4-methylquinoline-8-sulfonyl)-3-(4-pyridin-4-ylpiperazin-1-yl)-2,3-dihydro-1H-indol-2-one] | 10 to 50 |
| CCOc1cc(F)ccc1C1(N2CCN(c3ccncc3)CC2)C(=O)N(S(=O)(=O)c2ccc(OC)cn2)c2ccc(C#N)cc21 (racemic) [Example 32, (±)-5-Cyano-3-(2-ethoxy-4-fluorophenyl)-1-(5-methoxypyridine-2-sulfonyl)-3-(4-pyridin-4-ylpiperazin-1-yl)-2,3-dihydro-1H-indol-2-one] | < 10 |
| CCOc1nc(Cl)ccc1C1(N2CCN(c3ccnc(C)c3)CC2)C(=O)N(S(=O)(=O)c2ccc(OC)cn2)c2ccc(C#N)cc21 (racemic) [Example 34, (±)-5-Cyano-3-(6-chloro-2-ethoxypyridin-3-yl)-1-(5-methoxypyridine-2-sulfonyl)-3-[4-(2-methylpyridin-4-yl)piperazin-1-yl]-2,3-dihydro-1H-indol-2-one] | < 10 |
| CCOc1nc(Cl)ccc1C1(N2CCN(c3ccncc3)CC2)C(=O)N(S(=O)(=O)c2ccc(OC)cn2)c2ccc(C#N)cc21 (racemic) [Example 36, (±)-5-Cyano-3-(6-chloro-2-ethoxypyridin-3-yl)-1-(5-methoxypyridine-2-sulfonyl)-3-(4-pyridin-4-ylpiperazin-1-yl)-2,3-dihydro-1H-indol-2-one] | < 10 |
| COc1ccccc1C1(N2CCN(c3ccncc3)CC2)C(=O)N(S(=O)(=O)c2cccc3cccnc23)c2ccc(Cl)cc21 (racemic) [Example 37, (±)-5-Chloro-3-(2-methoxyphenyl)-3-(4-pyridin-4-ylpiperazin-1-yl)-1-(quinoline-8-sulfonyl)-1,3-dihydroindol-2-one] | < 10 |
| CCOc1ccccc1C1(N2CCN(c3ccncc3)CC2)C(=O)N(S(=O)(=O)c2cccc3cccnc23)c2ccc(C#N)cc21 (racemic) [Example 38, (±)-5-Cyano-3-(2-ethoxyphenyl)-3-(4-pyridin-4-ylpiperazin-1-yl)-1-(quinoline-8-sulfonyl)-2,3-dihydro-1H-indol-2-one] | 10 to 50 |
| COc1ccccc1C1(N2CCN(c3ccncc3)CC2)C(=O)N(S(=O)(=O)c2cccc3cccnc23)c2cc(C)ccc21 (racemic) [Example 39, (±)-3-(2-Methoxyphenyl)-6-methyl-3-(4-pyridin-4-ylpiperazin-1-yl)-1-(quinoline-8-sulfonyl)-1,3-dihydroindol-2-one] | 10 to 50 |
| COc1ccc(CN(C)C)cc1C1(N2CCN(c3ccncc3)CC2)C(=O)N(S(=O)(=O)c2cccc3cccnc23)c2ccc(Cl)cc21 (racemic) [Example 41, (±)-5-Chloro-3-(5-dimethylaminomethyl-2-methoxyphenyl)-3-(4-pyridin-4-ylpiperazin-1-yl)-1-(quinoline-8-sulfonyl)-1,3-dihydroindol-2-one] | 10 to 50 |
| COc1ncccc1C1(N2CCN(c3ccncc3)CC2)C(=O)N(S(=O)(=O)c2cccc3cccnc23)c2ccc(Cl)cc21 (racemic) [Example 42, (±)-5-Chloro-3-(2-methoxypyridin-3-yl)-3-(4-pyridin-4-ylpiperazin-1-yl)-1-(quinoline-8-sulfonyl)-1,3-dihydroindol-2-one] | 10 to 50 |
| COc1ccccc1C1(N2CCN(c3ccncc3)CC2)C(=O)N(S(=O)(=O)c2cccc3cccnc23)c2ccc(C#N)cc21 (racemic) [Example 43, (±)-5-Cyano-3-(2-methoxyphenyl)-3-(4-pyridin-4-ylpiperazin-1-yl)-1-(quinoline-8-sulfonyl)-2,3-dihydro-1H-indol-2-one] | 10 to 50 |
| CCOc1cc(F)ccc1C1(N2CCN(c3ccncc3)CC2)C(=O)N(S(=O)(=O)c2cccc3cccnc23)c2ccc(C#N)cc21 (racemic) [Example 46, (±)-5-Cyano-3-(2-ethoxy-4-fluorophenyl)-3-(4-pyridin-4-ylpiperazin-1-yl)-1-(quinoline-8-sulfonyl)-2,3-dihydro-1H-indol-2-one] | 10 to 50 |
| CCOc1cc(F)ccc1C1(N2CCN(c3ccncc3)CC2)C(=O)N(S(=O)(=O)c2ccc(C)cn2)c2ccc(C#N)cc21 (racemic) [Example 49, (±)-5-Cyano-3-(2-ethoxy-4-fluorophenyl)-1-(5-methylpyridine-2-sulfonyl)-3-(4-pyridin-4-ylpiperazin-1-yl)-2,3-dihydro-1H-indol-2-one] | 10 to 50 |

Results, then the compound that gave them:

| Ki [nM] | SMILES |
| --- | --- |
| < 10 | CCOc1ccccc1C1(N2CCN(c3ccncc3)CC2)C(=O)N(S(=O)(=O)c2ccc(OC)c3cccnc23)c2ccc(C#N)cc21 (racemic) [Example 25, (±)-5-Cyano-3-(2-ethoxyphenyl)-1-(5-methoxyquinoline-8-sulfonyl)-3-(4-pyridin-4-yl-piperazin-1-yl)-2,3-dihydro-1H-indol-2-one] |
| 10 to 50 | CCOc1ccccc1C1(N2CCN(c3ccncc3)CC2)C(=O)N(S(=O)(=O)c2ccc(F)c3cccnc23)c2ccc(C#N)cc21 (racemic) [Example 26, (±)-5-Cyano-3-(2-ethoxyphenyl)-1-(5-fluoroquinoline-8-sulfonyl)-3-(4-pyridin-4-yl-piperazin-1-yl)-2,3-dihydro-1H-indol-2-one] |
| 10 to 50 | CCOc1nc(Cl)ccc1C1(N2CCN(c3ccnc(C)c3)CC2)C(=O)N(S(=O)(=O)c2cccc3cccnc23)c2ccc(C#N)cc21 (racemic) [Example 27, (±)-5-Cyano-3-(6-chloro-2-ethoxypyridin-3-yl)-3-[4-(2-methylpyridin-4-yl)-piperazin-1-yl]-1-(quinoline-8-sulfonyl)-2,3-dihydro-1H-indol-2-one] |
| 10 to 50 | CCOc1nc(Cl)ccc1C1(N2CCN(c3ccncc3)CC2)C(=O)N(S(=O)(=O)c2ccc(OC)cc2OC)c2ccc(C#N)cc21 (racemic) [Example 29, (±)-5-Cyano-3-(6-chloro-2-ethoxypyridin-3-yl)-1-(2,4-dimethoxybenzenesulfonyl)-3-(4-pyridin-4-ylpiperazin-1-yl)-2,3-dihydro-1H-indol-2-one] |
| 10 to 50 | CCOc1cc(F)ccc1C1(N2CCN(c3ccncc3)CC2)C(=O)N(S(=O)(=O)c2ccc(OC)c3cccnc23)c2ccc(C#N)cc21 (racemic) [Example 31, (±)-5-Cyano-3-(2-ethoxy-4-fluorophenyl)-1-(5-methoxyquinoline-8-sulfonyl)-3-(4-pyridin-4-ylpiperazin-1-yl)-2,3-dihydro-1H-indol-2-one] |
| < 10 | CCOc1ccc(OC)cc1C1(N2CCN(c3ccnc(C)c3)CC2)C(=O)N(S(=O)(=O)c2ccc(OC)c3cccnc23)c2ccc(C#N)cc21 (racemic) [Example 33, (±)-5-Cyano-3-(2-ethoxy-5-methoxyphenyl)-1-(5-methoxyquinoline-8-sulfonyl)-3-[4-(2-methylpyridin-4-yl)piperazin-1-yl]-2,3-dihydro-1H-indol-2-one] |
| < 10 | CCOc1ccc(OC)cc1C1(N2CCN(c3ccnc(C)c3)CC2)C(=O)N(S(=O)(=O)c2ccc(OC)cn2)c2ccc(C#N)cc21 (racemic) [Example 35, (±)-5-Cyano-3-(2-ethoxy-5-methoxyphenyl)-1-(5-methoxypyridine-2-sulfonyl)-3-[4-(2-methylpyridin-4-yl)piperazin-1-yl]-2,3-dihydro-1H-indol-2-one] |
| 10 to 50 | CCOc1ccccc1C1(N2CCN(c3ccnc(C)c3)CC2)C(=O)N(S(=O)(=O)c2cccc3cccnc23)c2ccc(C#N)cc21 (racemic) [Example 44, (±)-5-Cyano-3-(2-ethoxyphenyl)-3-[4-(2-methylpyridin-4-yl)piperazin-1-yl]-1-(quinoline-8-sulfonyl)-2,3-dihydro-1H-indol-2-one] |
| < 10 | CCOc1ccc(OC)cc1C1(N2CCN(c3ccncc3)CC2)C(=O)N(S(=O)(=O)c2ccc(C)cn2)c2ccc(C#N)cc21 (racemic) [Example 47, (±)-5-Cyano-3-(2-ethoxy-5-methoxyphenyl)-1-(5-methylpyridine-2-sulfonyl)-3-(4-pyridin-4-ylpiperazin-1-yl)-2,3-dihydro-1H-indol-2-one] |
| 10 to 50 | CCOc1ccc(OC)cc1C1(N2CCN(c3ccncc3)CC2)C(=O)N(S(=O)(=O)c2ccc(Cl)c3cccnc23)c2ccc(C#N)cc21 (racemic) [Example 48, (±)-5-Cyano-1-(5-chloroquinoline-8-sulfonyl)-3-(2-ethoxy-5-methoxyphenyl)-3-(4-pyridin-4-ylpiperazin-1-yl)-2,3-dihydro-1H-indol-2-one] |
